Experimental data from patent publication US8946119B2, “Chitooligosaccharides and methods for use in enhancing soybean growth” (Novozymes BioAg A/S, priority 2011, dated 2015).

Tests used:
[1] = tested on: soybean foliage; assay: Soybean field trials, foliar treatment, grain yield; details: in vivo
[2] = tested on: Soybean seeds (Jung seed, var. 8168NRR); assay: Greenhouse soybean seed treatment, leaf surface area; assay type: in vivo; details: seed treatment 3 fl oz/100 lbs of seed; seedlings grown 4 wks; central leaflet of 2nd trifoliate; vs control (water); FIG. 5
Procedure: Soybean seeds (Jung seed, var. 8168NRR) were treated with various active molecules. Seeds were treated with a liquid dose rate of 3 fl oz/100 lbs of seed. Seeds were allowed to dry for a 2 hours and planted in greenhouse in plastic pots containing 1:1 sand:perlite mixture. Seedlings were grown for 4 wks with occasional liquid fertilizer applications and then the plants were harvested. The central leaflet from the 2nd trifoliate (from down to top) was isolated and measured for surface area on a WinRhizo scanner. The rest of the plants were used for plant dry weight (DW).

[3] = tested on: Soybean plants (Jung seed, var. 8168NRR); assay: Greenhouse soybean foliar treatment, plant dry biomass; assay type: in vivo; details: foliar application at V4 growth stage, FIG. 8
Procedure: Soybean plants (Jung seed, var. 8168NRR) were treated with various active molecules at V4 growth stage. Plant were grown from seeds in greenhouse in plastic pots containing 1:1 sand:perlite mixture. Seedlings were grown for 4 wks with occasional liquid fertilizer applications and then the plants were harvested.

[4] = tested on: Soybean seeds (Pioneer 9oM80); assay: Soybean seed treatment in petriplates, radicle length; assay type: in vivo; details: germination paper soaked with 5 ml of treatment solution; radicles measured after 48 hours; FIG. 7
Procedure: Soybean seeds (Pioneer 9oM80) were plated in petriplates on moist germination paper soaked with 5 ml of treatment solution containing either water or Soybean LCO, Pea CO and CO plus fatty acids. Seedling radicles were isolated after 48 hours and measured for their length.

Row | Substance | Positive Yield Response (%) [1] | Response (bu/A) over Control [1] | Response Increase (% of Control) [1] | YIELD, Mean (N = 19) [1] | leaf surface area [2] | plant dry biomass [3] | plant dry biomass ([3]; listed as LCO) | radicle length [4]
1 | LCO-V (C18:1) [LCO (SP104)] | 68.4% | 1.8 bu/A | 3% | 58.3 bu/A | significant increase in leaf surface area |  |  | 
2 | LCO-V(C18:1, MeFuc) [soybean LCO] |  |  |  |  |  | no significant effect on plant dry biomass increase | relatively higher than the control plants | better seed radicle growth enhancement over control and CO
